According to patent US20260015350A1, “AZAQUINAZOLINE PAN-KRAS INHIBITORS” (Mirati Therapeutics, Inc., priority 2022, published 2026):

Legend:
KRas^G12S = target: T1, KRas^G12S (Homo sapiens, UniProt P01116, G12S); experiment: KRas binding assay (TR-FRET tracer displacement), KRas G12S; conditions: single point, 10 nM compound, TR-FRET
T1 construct: Biotinylated KRas (corresponding to amino acids 1-169, produced at Accelegan Inc.); biotin (biotinylated); purchased Accelegan Inc

KRas^G12D = target: T2, KRas^G12D (Homo sapiens, UniProt P01116, G12D); experiment: KRas binding assay (TR-FRET tracer displacement), KRas G12D
T2 construct: Biotinylated KRas (corresponding to amino acids 1-169, produced at Accelegan Inc.); biotin (biotinylated); purchased Accelegan Inc
T2 sequence (P01116 1-169 isoform P01116-2 G12D): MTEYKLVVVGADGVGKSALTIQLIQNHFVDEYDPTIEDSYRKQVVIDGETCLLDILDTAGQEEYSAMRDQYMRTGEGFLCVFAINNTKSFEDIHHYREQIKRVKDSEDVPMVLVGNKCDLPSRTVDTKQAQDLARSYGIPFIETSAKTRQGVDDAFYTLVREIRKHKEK

[1] = test system: KRas-mediated phosphorylation of ERK in A549 cells; experiment: Inhibition of KRas-mediated phosphorylation of ERK (Cisbio HTRF pERK), A549 cells; format: cell-based; conditions: Homo sapiens, HTRF pERK
How it was run: (§1)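 Following a 3-hr exposure of cells to serially diluted compound (from 10 uM, 3-fold, 10 doses), cold lysis for 40 mins preceded a 2-hr room-temperature HTRF immunoassay for phosphorylated ERK.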

[2] = test system: KRas-mediated phosphorylation of ERK in AsPC-1 cells; experiment: Inhibition of KRas-mediated phosphorylation of ERK (Cisbio HTRF pERK), AsPC-1 cells; format: cell-based; conditions: Homo sapiens, ASPC1, AsPC-1 cells; HTRF pERK
How it was run: as §1

KRas^G13D = target: T3, KRas^G13D (Homo sapiens, UniProt P01116, G13D); experiment: KRas binding assay (TR-FRET tracer displacement), KRas G13D; conditions: single point, 10 nM compound, TR-FRET
T3 construct: Biotinylated KRas (corresponding to amino acids 1-169, produced at Accelegan Inc.); biotin (biotinylated); purchased Accelegan Inc
T3 sequence (P01116 1-169 isoform P01116-2 G13D): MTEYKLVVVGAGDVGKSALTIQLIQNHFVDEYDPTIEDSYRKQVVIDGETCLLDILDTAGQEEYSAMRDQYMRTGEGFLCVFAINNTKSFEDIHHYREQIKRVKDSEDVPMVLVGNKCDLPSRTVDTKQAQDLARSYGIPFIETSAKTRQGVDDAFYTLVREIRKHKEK

KRas^WT = target: T4, KRas^WT (Homo sapiens, UniProt P01116); experiment: KRas binding assay (TR-FRET tracer displacement), KRas WT; conditions: single point, 10 nM compound, TR-FRET
T4 construct: Biotinylated KRas (corresponding to amino acids 1-169, produced at Accelegan Inc.); biotin (biotinylated); purchased Accelegan Inc
T4 sequence (P01116 1-169 isoform P01116-2): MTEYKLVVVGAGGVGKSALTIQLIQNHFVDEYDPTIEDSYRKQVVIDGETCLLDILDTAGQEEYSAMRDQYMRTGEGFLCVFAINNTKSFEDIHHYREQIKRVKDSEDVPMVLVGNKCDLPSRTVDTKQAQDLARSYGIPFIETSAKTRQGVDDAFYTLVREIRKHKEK

KRas^G12V = target: T5, KRas^G12V (Homo sapiens, UniProt P01116, G12V); experiment: KRas binding assay (TR-FRET tracer displacement), KRas G12V
T5 construct: Biotinylated KRas (corresponding to amino acids 1-169, produced at Accelegan Inc.); biotin (biotinylated); purchased Accelegan Inc
T5 sequence (P01116 1-169 isoform P01116-2 G12V): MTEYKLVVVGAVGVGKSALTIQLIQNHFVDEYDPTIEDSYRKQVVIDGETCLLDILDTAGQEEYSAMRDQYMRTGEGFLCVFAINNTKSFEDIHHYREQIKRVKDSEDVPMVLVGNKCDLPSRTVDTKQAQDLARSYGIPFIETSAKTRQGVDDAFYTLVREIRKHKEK

KRas^G12C = target: T6, KRas^G12C (Homo sapiens, UniProt P01116, G12C); experiment: KRas binding assay (TR-FRET tracer displacement), KRas G12C; conditions: single point, 10 nM compound, TR-FRET
T6 construct: Biotinylated KRas (corresponding to amino acids 1-169, produced at Accelegan Inc.); biotin (biotinylated); purchased Accelegan Inc
T6 sequence (P01116 1-169 isoform P01116-2 G12C): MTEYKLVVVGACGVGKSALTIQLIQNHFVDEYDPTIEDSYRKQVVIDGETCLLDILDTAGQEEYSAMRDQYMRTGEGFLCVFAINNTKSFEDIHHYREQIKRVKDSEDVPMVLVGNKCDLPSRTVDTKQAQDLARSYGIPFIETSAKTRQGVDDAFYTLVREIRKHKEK

[3] = test system: KRas-mediated phosphorylation of ERK in H727 cells; experiment: Inhibition of KRas-mediated phosphorylation of ERK (Cisbio HTRF pERK), H727 cells; format: cell-based; conditions: Homo sapiens, NCI-H727, H727 cells; HTRF pERK
How it was run: as §1

KRas^G12A = target: T7, KRas^G12A (Homo sapiens, UniProt P01116, G12A); experiment: KRas binding assay (TR-FRET tracer displacement), KRas G12A; conditions: single point, 10 nM compound, TR-FRET
T7 construct: Biotinylated KRas (corresponding to amino acids 1-169, produced at Accelegan Inc.); biotin (biotinylated); purchased Accelegan Inc
T7 sequence (P01116 1-169 isoform P01116-2 G12A): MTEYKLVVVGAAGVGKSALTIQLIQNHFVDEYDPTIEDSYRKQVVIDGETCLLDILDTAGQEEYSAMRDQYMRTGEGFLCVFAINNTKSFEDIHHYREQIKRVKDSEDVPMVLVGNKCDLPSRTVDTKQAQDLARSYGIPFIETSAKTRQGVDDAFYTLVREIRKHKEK

KRas^G12R = target: T8, KRas^G12R (Homo sapiens, UniProt P01116, G12R); experiment: KRas binding assay (TR-FRET tracer displacement), KRas G12R
T8 construct: Biotinylated KRas (corresponding to amino acids 1-169, produced at Accelegan Inc.); biotin (biotinylated); purchased Accelegan Inc
T8 sequence (P01116 1-169 isoform P01116-2 G12R): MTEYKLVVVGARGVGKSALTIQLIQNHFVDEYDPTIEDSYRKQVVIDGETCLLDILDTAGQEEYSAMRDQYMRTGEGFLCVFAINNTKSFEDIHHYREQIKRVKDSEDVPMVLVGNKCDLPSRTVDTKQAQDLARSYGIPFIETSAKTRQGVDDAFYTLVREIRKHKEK

[4] = test system: KRas-mediated phosphorylation of ERK in HCT116 cells; experiment: Inhibition of KRas-mediated phosphorylation of ERK (Cisbio HTRF pERK), HCT116 cells; format: cell-based; conditions: Homo sapiens; for IC50: HCT-116, HTRF pERK
How it was run: as §1

KRas^Q61H = target: T9, KRas^Q61H (Homo sapiens, UniProt P01116, Q61H); experiment: KRas binding assay (TR-FRET tracer displacement), KRas Q61H; conditions: single point, 10 nM compound, TR-FRET
T9 construct: Biotinylated KRas (corresponding to amino acids 1-169, produced at Accelegan Inc.); biotin (biotinylated); purchased Accelegan Inc
T9 sequence (P01116 1-169 isoform P01116-2 Q61H): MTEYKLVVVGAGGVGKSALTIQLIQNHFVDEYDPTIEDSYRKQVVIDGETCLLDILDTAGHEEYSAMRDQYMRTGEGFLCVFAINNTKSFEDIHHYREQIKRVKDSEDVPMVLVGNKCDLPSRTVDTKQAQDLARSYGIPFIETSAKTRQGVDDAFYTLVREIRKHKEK

[5] = test system: KRas-mediated phosphorylation of ERK in MKN1 cells; experiment: Inhibition of KRas-mediated phosphorylation of ERK (Cisbio HTRF pERK), MKN1 cells; format: cell-based; conditions: Homo sapiens, MKN-1
How it was run: (§2)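 Overnight culture at 37° C./5% CO2 in RPMI containing 10% FBS, seeded 6,000 cells per well, preceded the assay. A covered 4-hour incubation at room temperature followed, then HTRF signal for phosphorylated ERK was measured.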

[6] = test system: KRas-mediated phosphorylation of ERK in H460 cells; experiment: Inhibition of KRas-mediated phosphorylation of ERK (Cisbio HTRF pERK), H460 cells; format: cell-based; conditions: Homo sapiens; for IC50: NCI-H460, HTRF pERK
How it was run: as §1

[7] = test system: KRas-mediated phosphorylation of ERK in PSN1 cells; experiment: Inhibition of KRas-mediated phosphorylation of ERK (Cisbio HTRF pERK), PSN1 cells; format: cell-based; conditions: Homo sapiens
How it was run: as §2

T1 sequence (P01116 1-169 isoform P01116-2 G12S): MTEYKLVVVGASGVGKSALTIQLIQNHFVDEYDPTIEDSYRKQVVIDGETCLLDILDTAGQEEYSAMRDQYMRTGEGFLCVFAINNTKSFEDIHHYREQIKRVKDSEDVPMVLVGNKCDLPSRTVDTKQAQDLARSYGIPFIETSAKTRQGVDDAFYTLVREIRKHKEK

Row | SMILES | inhibition at 0.01 µM (KRas^G12S) [%] | IC50 (KRas^G12D) [nM] | IC50 [1] [nM] | IC50 [2] [nM] | inhibition at 0.01 µM (KRas^G13D) [%] | inhibition at 0.01 µM (KRas^WT) [%] | IC50 (KRas^G12V) [nM] | inhibition at 0.01 µM (KRas^G12C) [%] | IC50 [3] [nM] | inhibition at 0.01 µM (KRas^G12A) [%] | IC50 (KRas^G12R) [nM] | inhibition at 0.01 µM (KRas^Q61H) [%] | IC50 [5] [nM] | IC50 [7] [nM] | IC50 [4] [nM] | IC50 [6] [nM] | inhibition at 0.1 µM ([4]; HCT-116, 3 h, single point, 100 nM compound, 3 hrs) [%] | inhibition at 0.1 µM ([6]; NCI-H460, 3 h, single point, 100 nM compound, 3 hrs) [%]
1 | CCc1c(F)ccc2cc(O)cc(-c3ncc4c(N5CCCC6(CC(O)C6)C5)nc(OCC5(CN(C)C)CC5)nc4c3F)c12 (centres unmarked) [Example 698, 6-(2-((1-((dimethylamino)methyl)cyclopropyl)methoxy)-7-(8-ethyl-7-fluoro-3-hydroxynaphthalen-1-yl)-8-fluoropyrido[4,3-d]pyrimidin-4-yl)-6-azaspiro[3.5]nonan-2-ol] | 86 | 2 | 141 | 87 | 84 | 82 | < 2 | 91 | 68 | 77 | < 2 | 88 | 17 | 4150 | 188 | 72 | – | –
2 | CCc1c(F)ccc2cc(O)cc(-c3ncc4c(N5CCC[C@@](C)(O)C5)nc(OC[C@@]56CCCN5[C@H](COC(=O)NC)CC6)nc4c3F)c12 [Example 706, ((3S,7aS)-7a-(((7-(8-ethyl-7-fluoro-3-hydroxynaphthalen-1-yl)-8-fluoro-4-((R)-3-hydroxy-3-methylpiperidin-1-yl)pyrido[4,3-d]pyrimidin-2-yl)oxy)methyl)hexahydro-1H-pyrrolizin-3-yl)methyl methylcarbamate] | 85 | 3 | 112 | 45 | 89 | 84 | < 2 | 89 | 83 | 82 | 2 | 88 | 9 | 2780 | 85 | 39 | – | –
3 | CCNC(=O)OC[C@@H]1CC[C@]2(COc3nc(N4CCC[C@@](C)(O)C4)c4cnc(-c5cc(O)cc6ccc(F)c(CC)c56)c(F)c4n3)CCCN12 [Example 717, ((3S,7aS)-7a-(((7-(8-ethyl-7-fluoro-3-hydroxynaphthalen-1-yl)-8-fluoro-4-((R)-3-hydroxy-3-methylpiperidin-1-yl)pyrido[4,3-d]pyrimidin-2-yl)oxy)methyl)hexahydro-1H-pyrrolizin-3-yl)methyl ethylcarbamate] | 92 | < 2 | 47 | 22 | 94 | 92 | < 2 | 93 | 44 | 90 | < 2 | 92 | 3 | 1820 | 84 | 30 | – | –
4 | CCc1c(F)ccc2cc(O)cc(-c3ncc4c(N5CCC[C@@](C)(O)C5)nc(OC[C@@]56CCCN5[C@H](COC(=O)N5CCCC5)CC6)nc4c3F)c12 [Example 719, ((3S,7aS)-7a-(((7-(8-ethyl-7-fluoro-3-hydroxynaphthalen-1-yl)-8-fluoro-4-((R)-3-hydroxy-3-methylpiperidin-1-yl)pyrido[4,3-d]pyrimidin-2-yl)oxy)methyl)hexahydro-1H-pyrrolizin-3-yl)methyl pyrrolidine-1-carboxylate] | 97 | < 2 | 7 | 7 | 98 | 96 | < 2 | 97 | 23 | 95 | < 2 | 98 | 1 | 518 | 23 | 8 | – | –
5 | CCc1c(F)ccc2cc(O)cc(-c3ncc4c(N5CCC[C@@](C)(O)C5)nc(OC[C@@]56CCCN5[C@H](COC(=O)N5CCCCC5)CC6)nc4c3F)c12 [Example 721, ((3S,7aS)-7a-(((7-(8-ethyl-7-fluoro-3-hydroxynaphthalen-1-yl)-8-fluoro-4-((R)-3-hydroxy-3-methylpiperidin-1-yl)pyrido[4,3-d]pyrimidin-2-yl)oxy)methyl)hexahydro-1H-pyrrolizin-3-yl)methyl piperidine-1-carboxylate] | 90 | < 2 | 19 | 15 | 93 | 89 | < 2 | 92 | 28 | 90 | < 2 | 92 | 2 | 956 | 48 | 12 | – | –

Now from value to compound, other results behind:

Row | inhibition at 0.01 µM (KRas^G12S) [%] | IC50 (KRas^G12D) [nM] | IC50 [1] [nM] | IC50 [2] [nM] | inhibition at 0.01 µM (KRas^G13D) [%] | inhibition at 0.01 µM (KRas^WT) [%] | IC50 (KRas^G12V) [nM] | inhibition at 0.01 µM (KRas^G12C) [%] | IC50 [3] [nM] | inhibition at 0.01 µM (KRas^G12A) [%] | IC50 (KRas^G12R) [nM] | inhibition at 0.01 µM (KRas^Q61H) [%] | IC50 [5] [nM] | IC50 [7] [nM] | IC50 [4] [nM] | IC50 [6] [nM] | SMILES | inhibition at 0.1 µM ([4]; HCT-116, 3 h, single point, 100 nM compound, 3 hrs) [%] | inhibition at 0.1 µM ([6]; NCI-H460, 3 h, single point, 100 nM compound, 3 hrs) [%]
6 | 93 | 6 | 65 | 94 | 93 | 91 | 3 | 93 | 85 | 91 | 4 | 90 | 25 | 3770 | – | – | CCc1c(F)ccc2cc(O)cc(-c3ncc4c(N5CCC(O)C(F)(F)CC5)nc(OC[C@@]56CCCN5C[C@H](F)C6)nc4c3F)c12 (stereo partly drawn) [Example 586, 1-(7-(8-ethyl-7-fluoro-3-hydroxynaphthalen-1-yl)-8-fluoro-2-(((2R,7aS)-2-fluorotetrahydro-1H-pyrrolizin-7a(5H)-yl)methoxy)pyrido[4,3-d]pyrimidin-4-yl)-5,5-difluoroazepan-4-ol] | 42 | 56
7 | 94 | < 2 | 37 | 17 | 95 | 94 | < 2 | 96 | 43 | 94 | < 2 | 96 | 2 | 1100 | 58 | 29 | CCc1c(F)ccc2cc(O)cc(-c3ncc4c(N5CCC[C@@](C)(O)C5)nc(OC[C@@]56CCCN5[C@H](COC(=O)NC(C)C)CC6)nc4c3F)c12 [Example 718, ((3S,7aS)-7a-(((7-(8-ethyl-7-fluoro-3-hydroxynaphthalen-1-yl)-8-fluoro-4-((R)-3-hydroxy-3-methylpiperidin-1-yl)pyrido[4,3-d]pyrimidin-2-yl)oxy)methyl)hexahydro-1H-pyrrolizin-3-yl)methyl isopropylcarbamate] | – | –
8 | 66 | 17 | 76 | 193 | 55 | 48 | 5 | 58 | 87 | 54 | 3 | 48 | 32 | > 10000 | 216 | 64 | CCc1cccc2cc3[nH]ncc3c(-c3ncc4c(N5C[C@@H]6C[C@H](C5)[C@H](O)C6)nc(OC[C@@]56CCCN5C[C@H](F)C6)nc4c3F)c12 [Example 767, (1R,5R,6R)-3-(7-(5-ethyl-1H-benzo[f]indazol-4-yl)-8-fluoro-2-(((2R,7aS)-2-fluorohexahydro-1H-pyrrolizin-7a-yl)methoxy)pyrido[4,3-d]pyrimidin-4-yl)-3-azabicyclo[3.2.1]octan-6-ol] | – | –
